From the NIST ThermoML archive (doi:10.1021/je5002494)
Numbers after ± are expanded uncertainties.

Conditions: Liquid

Critical pressure	Critical temperature	SMILES
7379.8 ± 300 kPa	304.3 ± 3.7 K	O=C=O [carbon dioxide]
3828.9 ± 300 kPa	523.29 ± 3.7 K	CCOC(C)=O [ethyl acetate]
2891.5 ± 300 kPa	569.98 ± 3.7 K	CCCC(=O)OCC [ethyl butanoate]
2356.9 ± 300 kPa	635.12 ± 3.7 K	CCCCCCC(=O)OCC [ethyl heptanoate]
2531.3 ± 300 kPa	615.22 ± 3.7 K	CCCCCC(=O)OCC [ethyl hexanoate]
2159.2 ± 300 kPa	655.74 ± 3.7 K	CCCCCCCC(=O)OCC [ethyl octanoate]
2730.4 ± 300 kPa	594.02 ± 3.7 K	CCCCC(=O)OCC [ethyl pentanoate]
3385.6 ± 300 kPa	546.28 ± 3.7 K	CCOC(=O)CC [ethyl propanoate]
3670.8 ± 300 kPa	593.84 ± 3.7 K	C/C=C/C(=O)OCC [ethyl trans-2-butenoate]
